The test system of this experiment is NIH3T3 cells. The experiment is described as follows: Macroautophagic flux (LC3-II flux with/without lysosomal protease inhibitors). Particulars: 20 μM, 16 h. In kind it is cell-based, mouse. Here is the method: FIG. 10. Characterization of the brain permeable chemical activator of CMA and effect in a mouse model of Frontotemporal dementia-related proteotoxicity. (A) Chemical structure of AR7 and CA77.1. (B) Quantification of the effect of adding increasing concentrations of AR7 and CA77.1 to NIH3T3 cells stably expressing the KFERQ-PS-Dendra reporter. CMA activity was quantified after 16 h treatment as the average of fluorescent puncta per cell. (n>800 cells per condition). (C) Autophagic flux in NIH3T3 cells incubated at 37° C. for 16 h with 20 µM AR7 or CA77.1 or without additions (none). Where indicated lysosomal protease inhibitors (PI) were added to the cells 6 h before lysis. Left: representative immunoblot. […] Right: quantification of LC3-II flux as the difference in LC3-II levels in cells treated with PI relative to untreated. […] (D) Quantification of the effect of adding increasing concentrations of AR7 and CA77.1 to NIH3T3 cells stably expressing the KFERQ-PS-Dendra reporter. CMA activity was quantified after 12 h or 24 h treatment as the average of fluorescent puncta per cell. […] Representative immunoblot of 4-5 mice per genotype and treatment (L) and densitometric quantification of AT8 as monomer [Kruskal-Wallis statistic=20.48, p<0.0001] […] (O, P) Quantification of the number of Iba1-positive microglial cells per mm^2 in the hippocampus [Kruskal-Wallis statistic=10.55, p=0.0051] […]

From patent US20240189307A1, “METHODS OF STABILIZING THE NEURONAL PROTEOME AGAINST COLLAPSE AND PROTECTING VASCULAR CELLS” (ALBERT EINSTEIN COLLEGE OF MEDICINE, priority 2021, published 2024) come the findings set out here.

In the case of `CC(=O)Nc1ccc(-c2cnc3cc(Cl)ccc3n2)cc1` [CA77.1], the “effect on macroautophagy (LC3-II flux)” value is “without affecting macroautophagy”.
